Experimental data reported in PubChem BioAssay (NCI).
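Values below derive from 48-hour exposures of cells grown in 96-well plates, with endpoints linearly interpolated between the two concentrations bracketing the appropriate inhibition level. TGI: total growth inhibition.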

Tests used:
Test in all cases: DTP human tumour cell line panel, 48 h
OVCAR-4 ovarian = tested on: OVCAR-4 ovarian
SK-MEL-28 melanoma = tested on: SK-MEL-28 melanoma
M19-MEL melanoma = tested on: M19-MEL melanoma
KM12 colon = tested on: KM12 colon
ACHN renal = tested on: ACHN renal
A498 renal = tested on: A498 renal
LOX IMVI melanoma = tested on: LOX IMVI melanoma
HCC-2998 colon = tested on: HCC-2998 colon
MALME-3M melanoma = tested on: MALME-3M melanoma
786-0 renal = tested on: 786-0 renal
EKVX NSCLC = tested on: EKVX NSCLC
OVCAR-5 ovarian = tested on: OVCAR-5 ovarian
SK-MEL-5 melanoma = tested on: SK-MEL-5 melanoma
SNB-75 CNS = tested on: SNB-75 CNS
SNB-78 CNS = tested on: SNB-78 CNS
HCT-15 colon = tested on: HCT-15 colon
UO-31 renal = tested on: UO-31 renal
NCI-H226 lung = tested on: NCI-H226 lung
SW-620 colon = tested on: SW-620 colon
HL-60(TB) leukemia = tested on: HL-60(TB) leukemia
SK-OV-3 ovarian = tested on: SK-OV-3 ovarian
NCI-H23 lung = tested on: NCI-H23 lung
DLD-1 colon = tested on: DLD-1 colon
UACC-62 melanoma = tested on: UACC-62 melanoma
NCI-H522 lung = tested on: NCI-H522 lung
SNB-19 CNS = tested on: SNB-19 CNS
OVCAR-3 ovarian = tested on: OVCAR-3 ovarian
TK-10 renal = tested on: TK-10 renal
HOP-62 NSCLC = tested on: HOP-62 NSCLC
KM20L2 colon = tested on: KM20L2 colon
RXF 393 renal = tested on: RXF 393 renal
RPMI-8226 leukemia = tested on: RPMI-8226 leukemia
K-562 leukemia = tested on: K-562 leukemia
NCI-H460 lung = tested on: NCI-H460 lung
SK-MEL-2 melanoma = tested on: SK-MEL-2 melanoma
CCRF-CEM leukemia = tested on: CCRF-CEM leukemia
SF-539 CNS = tested on: SF-539 CNS
SF-295 CNS = tested on: SF-295 CNS
A549 NSCLC = tested on: A549 NSCLC
SN12C renal = tested on: SN12C renal
OVCAR-8 ovarian = tested on: OVCAR-8 ovarian
U251 CNS = tested on: U251 CNS
IGROV1 ovarian = tested on: IGROV1 ovarian
COLO 205 colon = tested on: COLO 205 colon
DMS 114 small cell lung = tested on: DMS 114 small cell lung
SF-268 CNS = tested on: SF-268 CNS
HT29 colon = tested on: HT29 colon
UACC-257 melanoma = tested on: UACC-257 melanoma
DMS 273 small cell lung = tested on: DMS 273 small cell lung
BT-549 breast = tested on: BT-549 breast
MCF7 breast = tested on: MCF7 breast
SR leukemia = tested on: SR leukemia
PC-3 prostate = tested on: PC-3 prostate
NCI/ADR-RES ovarian = tested on: NCI/ADR-RES ovarian
MDA-MB-435 = tested on: MDA-MB-435
MDA-MB-231 breast = tested on: MDA-MB-231 breast
CAKI-1 renal = tested on: CAKI-1 renal
M14 melanoma = tested on: M14 melanoma
LXFL 529 NSCLC = tested on: LXFL 529 NSCLC
T-47D breast = tested on: T-47D breast
MOLT-4 leukemia = tested on: MOLT-4 leukemia
HCT-116 colon = tested on: HCT-116 colon
MDA-N = tested on: MDA-N
HOP-18 NSCLC = tested on: HOP-18 NSCLC
HS 578T breast = tested on: HS 578T breast
DU-145 prostate = tested on: DU-145 prostate
HOP-92 NSCLC = tested on: HOP-92 NSCLC

Compound: O=C(Nc1ccccc1SC(/C=C/NNC1=NC(c2ccccc2)C(c2ccccc2)=NN1)c1ccccc1)c1ccc(Cl)cc1Cl (configuration not stated)
- TGI (OVCAR-4 ovarian): 94.8 µM
- TGI (SK-MEL-28 melanoma): > 100 µM
- TGI (M19-MEL melanoma): > 100 µM
- TGI (KM12 colon): > 100 µM
- TGI (ACHN renal): > 100 µM
- TGI (A498 renal): > 100 µM
- TGI (LOX IMVI melanoma): > 100 µM
- TGI (HCC-2998 colon): > 100 µM
- TGI (MALME-3M melanoma): > 100 µM
- TGI (786-0 renal): > 100 µM
- TGI (EKVX NSCLC): > 100 µM
- TGI (OVCAR-5 ovarian): > 100 µM
- TGI (SK-MEL-5 melanoma): > 100 µM
- TGI (SNB-75 CNS): > 100 µM
- TGI (SNB-78 CNS): > 100 µM
- TGI (HCT-15 colon): > 100 µM
- TGI (UO-31 renal): 94.6 µM
- TGI (NCI-H226 lung): 99.6 µM
- TGI (SW-620 colon): > 100 µM
- TGI (HL-60(TB) leukemia): > 100 µM
- TGI (SK-OV-3 ovarian): > 100 µM
- TGI (NCI-H23 lung): 55.6 µM
- TGI (DLD-1 colon): > 100 µM
- TGI (UACC-62 melanoma): > 100 µM
- TGI (NCI-H522 lung): > 100 µM
- TGI (SNB-19 CNS): > 100 µM
- TGI (OVCAR-3 ovarian): > 100 µM
- TGI (TK-10 renal): > 100 µM
- TGI (HOP-62 NSCLC): 73.5 µM
- TGI (KM20L2 colon): > 100 µM
- TGI (RXF 393 renal): > 100 µM
- TGI (RPMI-8226 leukemia): > 100 µM
- TGI (K-562 leukemia): > 100 µM
- TGI (NCI-H460 lung): > 100 µM
- TGI (SK-MEL-2 melanoma): 45.6 µM
- TGI (CCRF-CEM leukemia): > 100 µM
- TGI (SF-539 CNS): 60.2 µM
- TGI (SF-295 CNS): > 100 µM
- TGI (A549 NSCLC): > 100 µM
- TGI (SN12C renal): > 100 µM
- TGI (OVCAR-8 ovarian): > 100 µM
- TGI (U251 CNS): 64.6 µM
- TGI (IGROV1 ovarian): > 100 µM
- TGI (COLO 205 colon): > 100 µM
- TGI (DMS 114 small cell lung): > 100 µM
- TGI (SF-268 CNS): > 100 µM
- TGI (HT29 colon): > 100 µM
- TGI (UACC-257 melanoma): > 100 µM
- TGI (DMS 273 small cell lung): > 100 µM

Compound: CN(C)CCNc1ccc2nnn3c4ccc(O)cc4c(=O)c1c23
- TGI (OVCAR-4 ovarian): 9.63 µM
- TGI (BT-549 breast): 28.5 µM
- TGI (SK-MEL-28 melanoma): 23.4 µM
- TGI (MCF7 breast): 16 µM
- TGI (SR leukemia): 16.4 µM
- TGI (KM12 colon): 13.5 µM
- TGI (ACHN renal): 26.1 µM
- TGI (A498 renal): 12.1 µM
- TGI (LOX IMVI melanoma): 6.41 µM
- TGI (HCC-2998 colon): 19.6 µM
- TGI (MALME-3M melanoma): 19.5 µM
- TGI (PC-3 prostate): 12.1 µM
- TGI (NCI/ADR-RES ovarian): 12.6 µM
- TGI (786-0 renal): 15.4 µM
- TGI (EKVX NSCLC): 18.5 µM
- TGI (MDA-MB-435): 17.1 µM
- TGI (OVCAR-5 ovarian): 19.9 µM
- TGI (SK-MEL-5 melanoma): 12.2 µM
- TGI (SNB-75 CNS): 32.1 µM
- TGI (SNB-78 CNS): 31.7 µM
- TGI (HCT-15 colon): 13.4 µM
- TGI (MDA-MB-231 breast): 4.81 µM
- TGI (CAKI-1 renal): 20 µM
- TGI (UO-31 renal): 13.8 µM
- TGI (NCI-H226 lung): 23.6 µM
- TGI (SW-620 colon): 15.6 µM
- TGI (HL-60(TB) leukemia): 23.6 µM
- TGI (M14 melanoma): 21.2 µM
- TGI (SK-OV-3 ovarian): 29.7 µM
- TGI (NCI-H23 lung): 17.3 µM
- TGI (DLD-1 colon): 22.7 µM
- TGI (UACC-62 melanoma): 19.7 µM
- TGI (NCI-H522 lung): 18.8 µM
- TGI (SNB-19 CNS): 31.8 µM
- TGI (OVCAR-3 ovarian): 27.8 µM
- TGI (TK-10 renal): 31.9 µM
- TGI (HOP-62 NSCLC): 17.2 µM
- TGI (KM20L2 colon): 22.7 µM
- TGI (RXF 393 renal): 14.3 µM
- TGI (RPMI-8226 leukemia): 24.6 µM
- TGI (K-562 leukemia): > 37.7 µM
- TGI (NCI-H460 lung): 11.4 µM
- TGI (SK-MEL-2 melanoma): 22.6 µM
- TGI (CCRF-CEM leukemia): 32.9 µM
- TGI (LXFL 529 NSCLC): 19 µM
- TGI (SF-539 CNS): 15.6 µM
- TGI (T-47D breast): 27.1 µM
- TGI (MOLT-4 leukemia): 9.56 µM
- TGI (HCT-116 colon): 13.5 µM
- TGI (SF-295 CNS): 15.3 µM
- TGI (A549 NSCLC): 13 µM
- TGI (SN12C renal): 23.9 µM
- TGI (OVCAR-8 ovarian): 16.8 µM
- TGI (U251 CNS): 16.2 µM
- TGI (IGROV1 ovarian): 17.2 µM
- TGI (COLO 205 colon): 18.2 µM
- TGI (MDA-N): 15 µM
- TGI (DMS 114 small cell lung): 20.9 µM
- TGI (HOP-18 NSCLC): 50.5 µM
- TGI (SF-268 CNS): 20.7 µM
- TGI (HT29 colon): 16.1 µM
- TGI (HS 578T breast): 11.5 µM
- TGI (UACC-257 melanoma): 22.2 µM
- TGI (DU-145 prostate): 18.6 µM
- TGI (HOP-92 NSCLC): 26.5 µM

Compound: CN(C)CCNC(=O)C1COc2cc(-c3cc(=O)c4ccccc4o3)ccc2O1 (configuration not stated)
- TGI (OVCAR-4 ovarian): 33.2 µM
- TGI (SK-MEL-28 melanoma): 36 µM
- TGI (SR leukemia): 39.5 µM
- TGI (M19-MEL melanoma): > 100 µM
- TGI (ACHN renal): 33.1 µM
- TGI (A498 renal): 33.7 µM
- TGI (LOX IMVI melanoma): 38.3 µM
- TGI (HCC-2998 colon): > 100 µM
- TGI (MALME-3M melanoma): 36.2 µM
- TGI (786-0 renal): 36.3 µM
- TGI (EKVX NSCLC): > 100 µM
- TGI (OVCAR-5 ovarian): > 100 µM
- TGI (SK-MEL-5 melanoma): 28.8 µM
- TGI (SNB-75 CNS): 43.1 µM
- TGI (SNB-78 CNS): 57.8 µM
- TGI (HCT-15 colon): > 100 µM
- TGI (CAKI-1 renal): 38.3 µM
- TGI (UO-31 renal): > 100 µM
- TGI (NCI-H226 lung): 49 µM
- TGI (SW-620 colon): 44.5 µM
- TGI (HL-60(TB) leukemia): 58.9 µM
- TGI (M14 melanoma): 32 µM
- TGI (SK-OV-3 ovarian): 53.8 µM
- TGI (NCI-H23 lung): > 100 µM
- TGI (DLD-1 colon): > 100 µM
- TGI (UACC-62 melanoma): 34.9 µM
- TGI (NCI-H522 lung): 31 µM
- TGI (SNB-19 CNS): 57.8 µM
- TGI (OVCAR-3 ovarian): 43.7 µM
- TGI (TK-10 renal): 75.9 µM
- TGI (HOP-62 NSCLC): > 100 µM
- TGI (KM20L2 colon): 56.5 µM
- TGI (RXF 393 renal): 38.8 µM
- TGI (RPMI-8226 leukemia): 85.1 µM
- TGI (K-562 leukemia): > 100 µM
- TGI (NCI-H460 lung): > 100 µM
- TGI (CCRF-CEM leukemia): > 100 µM
- TGI (SF-539 CNS): 32.9 µM
- TGI (MOLT-4 leukemia): 40.7 µM
- TGI (HCT-116 colon): 29.6 µM
- TGI (SF-295 CNS): 93.6 µM
- TGI (A549 NSCLC): 35.5 µM
- TGI (SN12C renal): 78.8 µM
- TGI (OVCAR-8 ovarian): 70.1 µM
- TGI (U251 CNS): 40.3 µM
- TGI (IGROV1 ovarian): 48.3 µM
- TGI (COLO 205 colon): 31.7 µM
- TGI (HOP-18 NSCLC): 56 µM
- TGI (SF-268 CNS): 50.9 µM
- TGI (HT29 colon): 34.6 µM
- TGI (UACC-257 melanoma): 34.7 µM
- TGI (HOP-92 NSCLC): > 100 µM
- TGI (DMS 273 small cell lung): 36.3 µM
